Key:
bedstraw = assay: Test B pre/postemergence bedstraw; assay type: in vivo, Galium aparine; conditions: Preemergence
How it was run: (§1)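 Response is a visual 0-to-10 score relative to untreated plants, where 0 means no effect and 10 means complete control, taken twelve to sixteen days after application. Treatments went onto soil at planting and onto foliage of 1- to 4-leaf plants, using a surfactant-containing non-phytotoxic solvent.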

blackgrass = assay: Test B pre/postemergence blackgrass; assay type: in vivo, Alopecurus myosuroides
How it was run: as §1

surinam grass = assay: Test B pre/postemergence surinam grass; assay type: in vivo, Brachiaria decumbens
How it was run: as §1

cocklebur = assay: Test B pre/postemergence cocklebur; assay type: in vivo, Xanthium strumarium
How it was run: as §1

corn = assay: Test B pre/postemergence corn; assay type: in vivo, Zea mays
How it was run: as §1

crabgrass = assay: Test B pre/postemergence crabgrass; assay type: in vivo, Digitaria sanguinalis
How it was run: as §1

giant foxtail = assay: Test B pre/postemergence giant foxtail; assay type: in vivo, Setaria faberii
How it was run: as §1

morningglory = assay: Test B pre/postemergence morningglory; assay type: in vivo, Ipomoea hederacea
How it was run: as §1

pigweed = assay: Test B pre/postemergence pigweed; assay type: in vivo, Amaranthus retroflexus; conditions: for Plant response rating, Redroot pigweed: Postemergence; for Redroot pigweed plant response rating: Preemergence
How it was run: as §1

rape = assay: Test B pre/postemergence rape; assay type: in vivo, Brassica napus
How it was run: as §1

soybean = assay: Test B pre/postemergence soybean; assay type: in vivo, Glycine max; conditions: for Plant response rating, Soybean: Postemergence
How it was run: as §1

sugar beet = assay: Test B pre/postemergence sugar beet; assay type: in vivo, Beta vulgaris; conditions: for Plant response rating, Sugarbeets: Postemergence
How it was run: as §1

velvetleaf = assay: Test B pre/postemergence velvetleaf; assay type: in vivo, Abutilon theophrasti; conditions: for Plant response rating, Velvetleaf: Postemergence
How it was run: as §1

wheat = assay: Test B pre/postemergence wheat; assay type: in vivo, Triticum aestivum; conditions: for Plant response rating, Wheat: Postemergence
How it was run: as §1

wild oat = assay: Test B pre/postemergence wild oat; assay type: in vivo, Avena fatua; conditions: for Plant response rating, Wild oats: Postemergence
How it was run: as §1

purple nutsedge = assay: Test B pre/postemergence purple nutsedge; assay type: in vivo, Cyperus rotundus
How it was run: as §1

[1] = Rate 62 g/ha, scale 0 to 10 (0 no effect, 10 complete control)
[2] = Rate 125 g/ha, scale 0 to 10, 0 is no effect, 10 is complete control
[3] = Rate 500 g/ha, scale of 0 to 10 where 0 is no effect and 10 is complete control
[4] = Postemergence, Rate 62 g/ha, scale of 0 to 10, 0 is no effect, 10 is complete control
[5] = Postemergence, Rate 125 g/ha, scale 0 to 10, 0 is no effect, 10 is complete control
[6] = Preemergence, Rate 62 g/ha, scale 0 to 10 (0 no effect, 10 complete control)
[7] = Preemergence, Rate 125 g/ha, scale 0 to 10, 0 is no effect, 10 is complete control
[8] = Preemergence, Rate 500 g/ha, scale of 0 to 10 where 0 is no effect and 10 is complete control
[9] = Rate 250 g/ha, Postemergence, scale of 0 to 10 where 0 is no effect and 10 is complete control
[10] = Postemergence, Rate 500 g/ha, scale of 0 to 10 where 0 is no effect and 10 is complete control
[11] = Rate 250 g/ha, scale of 0 to 10 where 0 is no effect and 10 is complete control

CC(C)=CCn1c(=O)on(C(=O)N(c2ccccc2)C(C)C)c1=O [Compound 574]
2: Blackgrass plant response rating (blackgrass; [4]) | Blackgrass plant response rating (0 to 10 scale) (blackgrass; Preemergence, Rate 250 g/ha) | Blackgrass plant response rating (blackgrass; [8]) | Cocklebur plant response rating (cocklebur; [5]) | Plant response rating, Cocklebur (cocklebur; [10]) | Plant response rating, Cocklebur (cocklebur; [9]) | Crabgrass plant response rating (crabgrass; [5]) | Plant response rating, Crabgrass (crabgrass; [10]) | Crabgrass plant response rating (crabgrass; [6]) | Giant foxtail plant response rating (giant foxtail; [4]) | Plant response rating, Velvetleaf (velvetleaf; [3]) | Velvetleaf plant response rating (0 to 10 scale) (velvetleaf; Preemergence, Rate 250 g/ha) | Velvetleaf plant response rating (velvetleaf; [8]) | Plant response rating, Velvetleaf (velvetleaf; [11]) | Plant response rating, Wheat (wheat; [3])
3: Plant response rating, Rape (rape; [10]) | Sugarbeets plant response rating (sugar beet; [8]) | Wild oats plant response rating (wild oat; [8])
6: Blackgrass plant response rating (blackgrass; [5]) | Plant response rating, Blackgrass (blackgrass; [9]) | Plant response rating, Giant foxtail (giant foxtail; [9]) | Plant response rating, Soybean (soybean; [11])
7: B. signalgrass plant response rating (surinam grass; [7]) | Giant foxtail plant response rating (giant foxtail; [5]) | Plant response rating, Soybean (soybean; [3])
5: Plant response rating, Redroot pigweed (pigweed; [3])
9: B. signalgrass plant response rating (surinam grass; [8]) | Crabgrass plant response rating (crabgrass; [7]) | Crabgrass plant response rating (0 to 10 scale) (crabgrass; Preemergence, Rate 250 g/ha) | Crabgrass plant response rating (crabgrass; [8]) | Giant foxtail plant response rating (giant foxtail; [6]) | Redroot pigweed plant response rating (pigweed; [3])
4: B. signalgrass plant response rating (surinam grass; [6])
8: Plant response rating, Giant foxtail (giant foxtail; [10])
0: Bedstraw plant response rating (bedstraw; [1]) | Bedstraw plant response rating (bedstraw; [2]) | Bedstraw plant response rating (0 to 10 scale) (bedstraw; Rate 250 g/ha) | Bedstraw plant response rating (bedstraw; [3]) | Blackgrass plant response rating (blackgrass; [6]) | Blackgrass plant response rating (blackgrass; [7]) | B. signalgrass plant response rating (surinam grass; [4]) | B. signalgrass plant response rating (surinam grass; [5]) | Plant response rating, B. signalgrass (surinam grass; [10]) | Plant response rating, B. signalgrass (surinam grass; [9]) | Cocklebur plant response rating (cocklebur; [4]) | Cocklebur plant response rating (cocklebur; [6]) | Cocklebur plant response rating (cocklebur; [7]) | Cocklebur plant response rating (0 to 10 scale) (cocklebur; Preemergence, Rate 250 g/ha) | Cocklebur plant response rating (cocklebur; [8]) | Corn plant response rating (corn; [4]) | Corn plant response rating (corn; [5]) | Plant response rating, Corn (corn; [10]) | Corn plant response rating (corn; [6]) | Corn plant response rating (corn; [7]) | Corn plant response rating (0 to 10 scale) (corn; Preemergence, Rate 250 g/ha) | Corn plant response rating (corn; [8]) | Plant response rating, Corn (corn; [9]) | Crabgrass plant response rating (crabgrass; [4]) | Morningglory plant response rating (morningglory; [6]) | Morningglory plant response rating (morningglory; [7]) | Morningglory plant response rating (0 to 10 scale) (morningglory; Preemergence, Rate 250 g/ha) | Morningglory plant response rating (morningglory; [8]) | Redroot pigweed plant response rating (pigweed; [1]) | Redroot pigweed plant response rating (pigweed; [2]) | Plant response rating, Redroot pigweed (pigweed; [11]) | Rape plant response rating (rape; [4]) | Rape plant response rating (rape; [5]) | Rape plant response rating (rape; [6]) | Rape plant response rating (rape; [7]) | Rape plant response rating (0 to 10 scale) (rape; Preemergence, Rate 250 g/ha) | Rape plant response rating (rape; [8]) | Plant response rating, Rape (rape; [9]) | Soybean plant response rating (soybean; [6]) | Soybean plant response rating (soybean; [7]) | Soybean plant response rating (0 to 10 scale) (soybean; Preemergence, Rate 250 g/ha) | Soybean plant response rating (soybean; [8]) | Plant response rating, Sugarbeets (sugar beet; [3]) | Sugarbeets plant response rating (sugar beet; [6]) | Sugarbeets plant response rating (sugar beet; [7]) | Sugarbeets plant response rating (0 to 10 scale) (sugar beet; Preemergence, Rate 250 g/ha) | Plant response rating, Sugarbeets (sugar beet; [11]) | Velvetleaf plant response rating (velvetleaf; [6]) | Velvetleaf plant response rating (velvetleaf; [7]) | Wheat plant response rating (wheat; [6]) | Wheat plant response rating (wheat; [7]) | Wheat plant response rating (0 to 10 scale) (wheat; Preemergence, Rate 250 g/ha) | Wheat plant response rating (wheat; [8]) | Plant response rating, Wheat (wheat; [11]) | Plant response rating, Wild oats (wild oat; [3]) | Wild oats plant response rating (wild oat; [6]) | Wild oats plant response rating (wild oat; [7]) | Wild oats plant response rating (0 to 10 scale) (wild oat; Preemergence, Rate 250 g/ha) | Plant response rating, Wild oats (wild oat; [11]) | Nutsedge plant response rating (purple nutsedge; [4]) | Plant response rating, Nutsedge (purple nutsedge; [10]) | Nutsedge plant response rating (purple nutsedge; [6]) | Nutsedge plant response rating (purple nutsedge; [7]) | Nutsedge plant response rating (0 to 10 scale) (purple nutsedge; Preemergence, Rate 250 g/ha) | Nutsedge plant response rating (purple nutsedge; [8]) | Plant response rating, Nutsedge (purple nutsedge; [9])
10: B. signalgrass plant response rating (0 to 10 scale, 0 is no effect, 10 is complete control) (surinam grass; Preemergence, Rate 250 g/ha) | Giant foxtail plant response rating (giant foxtail; [7]) | Giant foxtail plant response rating (0 to 10 scale) (giant foxtail; Preemergence, Rate 250 g/ha) | Giant foxtail plant response rating (giant foxtail; [8]) | Morningglory plant response rating (morningglory; [4]) | Morningglory plant response rating (morningglory; [5]) | Plant response rating, Morningglory (morningglory; [10]) | Plant response rating, Morningglory (morningglory; [9])
